Experimental findings from ChEMBL document CHEMBL5291721, “A preclinical secondary pharmacology resource illuminates target-adverse drug reaction associations of marketed drugs” (Nat Commun, 2023) are described below.

For experiment [1], the target named is T1, Glucocorticoid receptor (Homo sapiens, UniProt P04150).
T1 sequence (P04150 whole entry): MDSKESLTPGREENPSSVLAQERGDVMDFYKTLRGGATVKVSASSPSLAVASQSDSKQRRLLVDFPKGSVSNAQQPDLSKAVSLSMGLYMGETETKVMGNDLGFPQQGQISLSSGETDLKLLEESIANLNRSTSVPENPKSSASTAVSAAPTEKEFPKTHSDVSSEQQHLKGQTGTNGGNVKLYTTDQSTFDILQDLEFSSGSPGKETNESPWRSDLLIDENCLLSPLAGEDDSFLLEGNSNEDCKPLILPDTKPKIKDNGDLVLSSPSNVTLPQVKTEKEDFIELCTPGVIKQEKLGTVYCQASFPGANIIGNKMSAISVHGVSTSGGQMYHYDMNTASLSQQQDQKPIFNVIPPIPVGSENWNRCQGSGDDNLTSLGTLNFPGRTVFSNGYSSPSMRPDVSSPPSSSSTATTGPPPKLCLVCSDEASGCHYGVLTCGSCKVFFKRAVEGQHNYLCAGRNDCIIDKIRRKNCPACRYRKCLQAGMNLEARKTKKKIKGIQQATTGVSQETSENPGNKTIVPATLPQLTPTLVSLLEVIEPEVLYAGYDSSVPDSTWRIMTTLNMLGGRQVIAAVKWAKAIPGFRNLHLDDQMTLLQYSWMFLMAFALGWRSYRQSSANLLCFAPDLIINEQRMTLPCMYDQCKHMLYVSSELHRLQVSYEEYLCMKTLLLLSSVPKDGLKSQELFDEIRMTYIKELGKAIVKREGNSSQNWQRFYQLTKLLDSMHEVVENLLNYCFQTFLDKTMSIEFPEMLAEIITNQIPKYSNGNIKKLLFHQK

Experiment [2] concerns the target Histamine H1 receptor (Homo sapiens, UniProt P35367).
Experiment [3] has as its target Beta-1 adrenergic receptor (Homo sapiens, UniProt P08588). Type of experiment: functional.
Experiment [4] deals with T2, Alpha-2A adrenergic receptor (Homo sapiens, UniProt P08913).
T2 sequence (P08913 whole entry): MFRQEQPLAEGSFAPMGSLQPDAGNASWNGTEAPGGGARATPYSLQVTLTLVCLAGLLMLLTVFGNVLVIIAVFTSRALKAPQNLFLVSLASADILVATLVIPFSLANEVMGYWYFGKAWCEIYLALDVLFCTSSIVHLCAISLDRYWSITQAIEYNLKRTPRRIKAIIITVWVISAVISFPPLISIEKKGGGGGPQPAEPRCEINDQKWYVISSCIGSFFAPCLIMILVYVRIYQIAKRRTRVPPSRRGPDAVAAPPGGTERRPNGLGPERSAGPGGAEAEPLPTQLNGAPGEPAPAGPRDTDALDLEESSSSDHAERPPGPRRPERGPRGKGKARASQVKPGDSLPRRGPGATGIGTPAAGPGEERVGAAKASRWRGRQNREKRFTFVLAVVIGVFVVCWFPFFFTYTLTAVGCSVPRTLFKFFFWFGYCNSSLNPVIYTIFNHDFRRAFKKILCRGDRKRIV
The class given is functional, cell-based.

Experiment [5] addresses T3, Alpha-1A adrenergic receptor (Homo sapiens, UniProt P35348).
T3 sequence (P35348 whole entry): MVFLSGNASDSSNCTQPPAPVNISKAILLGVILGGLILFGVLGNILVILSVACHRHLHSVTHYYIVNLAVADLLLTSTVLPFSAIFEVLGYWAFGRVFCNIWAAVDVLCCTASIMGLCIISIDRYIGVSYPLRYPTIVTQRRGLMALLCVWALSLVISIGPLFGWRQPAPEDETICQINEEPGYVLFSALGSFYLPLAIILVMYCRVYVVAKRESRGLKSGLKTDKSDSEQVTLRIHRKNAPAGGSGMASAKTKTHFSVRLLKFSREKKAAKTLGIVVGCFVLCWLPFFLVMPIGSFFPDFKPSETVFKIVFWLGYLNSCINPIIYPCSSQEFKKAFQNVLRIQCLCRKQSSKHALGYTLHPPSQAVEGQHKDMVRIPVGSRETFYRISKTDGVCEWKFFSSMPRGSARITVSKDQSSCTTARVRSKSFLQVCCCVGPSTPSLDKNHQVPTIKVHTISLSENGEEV
Type of experiment: functional, cell-based.

The target of experiment [6] is Cannabinoid receptor 1 (Homo sapiens, UniProt P21554). Type of experiment: functional, cell-based.
Cannabinoid receptor 1, sequence (P21554 whole entry): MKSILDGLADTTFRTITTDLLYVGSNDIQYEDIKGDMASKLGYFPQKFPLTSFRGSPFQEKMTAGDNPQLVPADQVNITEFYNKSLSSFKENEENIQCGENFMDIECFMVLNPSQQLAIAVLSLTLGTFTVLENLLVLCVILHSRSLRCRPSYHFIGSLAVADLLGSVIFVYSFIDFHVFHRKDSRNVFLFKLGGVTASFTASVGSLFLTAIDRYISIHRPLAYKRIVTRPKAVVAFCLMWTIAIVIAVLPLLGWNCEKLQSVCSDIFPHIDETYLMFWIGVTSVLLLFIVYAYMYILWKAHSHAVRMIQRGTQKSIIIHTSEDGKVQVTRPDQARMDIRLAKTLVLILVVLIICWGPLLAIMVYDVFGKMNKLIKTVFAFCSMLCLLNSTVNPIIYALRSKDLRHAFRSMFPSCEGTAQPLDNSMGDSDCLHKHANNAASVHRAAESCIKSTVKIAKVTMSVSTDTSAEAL
For experiment [7], the target named is T4, Muscarinic acetylcholine receptor M2 (Homo sapiens, UniProt P08172).
T4 sequence (P08172 whole entry): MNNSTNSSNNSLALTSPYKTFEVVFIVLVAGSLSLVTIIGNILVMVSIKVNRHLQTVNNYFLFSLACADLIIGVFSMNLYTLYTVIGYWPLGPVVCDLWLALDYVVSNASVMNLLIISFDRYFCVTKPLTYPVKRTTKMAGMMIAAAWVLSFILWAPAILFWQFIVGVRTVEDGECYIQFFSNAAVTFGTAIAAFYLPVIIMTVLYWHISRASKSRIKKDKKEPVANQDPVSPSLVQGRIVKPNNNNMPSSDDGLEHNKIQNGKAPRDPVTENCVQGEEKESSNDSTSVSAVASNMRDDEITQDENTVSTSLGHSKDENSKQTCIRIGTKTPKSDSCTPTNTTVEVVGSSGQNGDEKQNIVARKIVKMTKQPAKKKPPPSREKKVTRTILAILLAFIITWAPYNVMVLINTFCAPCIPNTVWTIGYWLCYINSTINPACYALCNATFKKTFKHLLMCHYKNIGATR

Experiment [8] has as its target T2, Alpha-2A adrenergic receptor.

The structures appear in SMILES notation. A value given as a limit tells only on which side of the number the result lay.
Also: assay procedure not described here.

Beta-1 adrenergic receptor, sequence (P08588 whole entry): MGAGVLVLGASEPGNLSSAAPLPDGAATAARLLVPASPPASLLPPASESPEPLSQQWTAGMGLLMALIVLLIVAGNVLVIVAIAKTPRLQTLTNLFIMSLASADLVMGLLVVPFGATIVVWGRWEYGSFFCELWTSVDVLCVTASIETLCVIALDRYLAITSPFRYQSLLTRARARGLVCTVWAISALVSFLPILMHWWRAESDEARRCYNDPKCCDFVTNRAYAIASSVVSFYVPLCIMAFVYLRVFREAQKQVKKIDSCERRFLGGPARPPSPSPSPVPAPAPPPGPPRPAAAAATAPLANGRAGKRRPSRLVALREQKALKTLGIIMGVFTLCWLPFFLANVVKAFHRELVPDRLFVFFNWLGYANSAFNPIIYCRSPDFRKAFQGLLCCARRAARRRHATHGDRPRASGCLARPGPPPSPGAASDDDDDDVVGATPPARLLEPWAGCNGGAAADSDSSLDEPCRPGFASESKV
Histamine H1 receptor, sequence (P35367 whole entry): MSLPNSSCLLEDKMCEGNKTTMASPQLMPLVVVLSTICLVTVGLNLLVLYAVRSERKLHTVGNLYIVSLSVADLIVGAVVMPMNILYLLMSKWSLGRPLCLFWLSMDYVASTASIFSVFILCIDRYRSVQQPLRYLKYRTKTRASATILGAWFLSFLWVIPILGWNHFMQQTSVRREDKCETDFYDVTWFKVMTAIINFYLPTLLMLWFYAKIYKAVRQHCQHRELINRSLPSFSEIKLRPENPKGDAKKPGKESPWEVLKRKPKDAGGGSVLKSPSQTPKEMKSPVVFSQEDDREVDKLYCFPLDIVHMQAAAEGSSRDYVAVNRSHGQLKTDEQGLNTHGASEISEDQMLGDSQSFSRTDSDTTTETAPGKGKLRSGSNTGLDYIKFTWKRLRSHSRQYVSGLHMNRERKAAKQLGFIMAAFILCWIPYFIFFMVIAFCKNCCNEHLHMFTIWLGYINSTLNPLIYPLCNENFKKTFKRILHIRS

By AC50 is commonly meant the concentration at which the activity in the assay is half-maximal. Higher therefore signals activity only at high concentration. In the case of `CCC[C@H](NC(=O)[C@@H]1[C@H]2CCC[C@H]2CN1C(=O)[C@@H](NC(=O)[C@@H](NC(=O)c1cnccn1)C1CCCCC1)C(C)(C)C)C(=O)C(=O)NC1CC1`, the AC50 in experiment [1] was greater than 30 µM; in experiment [2], greater than 10 µM; in experiment [3] it was greater than 10 µM.
For `C=CCNc1nc(NCC=C)nc(N2CCN(C(c3ccc(F)cc3)c3ccc(F)cc3)CC2)n1` [ALMITRINE], the AC50 in experiment [1], in experiment [2], in experiment [3] and in experiment [4] was greater than 30 µM in each case.
Take `CN1CCC(=C2c3ccccc3CCc3cccnc32)CC1` [AZATADINE]: the AC50 was 0.0066 µM in experiment [2]; greater than 10 µM in experiment [3]; greater than 10 µM in experiment [4]; greater than 30 µM in experiment [5]; greater than 30 µM in experiment [6].
For the molecule `CC(C)COCC(CN(Cc1ccccc1)c1ccccc1)N1CCCC1` (stereo unspecified) [BEPRIDIL], the AC50 in experiment [1] was greater than 30 µM; in experiment [2], 8.6 µM; in experiment [4] it was greater than 30 µM.
Regarding `C/N=C(\NC)NCc1ccccc1` [BETHANIDINE], the concentration at half-maximal activity (AC50) in experiment [1], in experiment [2], in experiment [4], in experiment [5] and in experiment [6] was greater than 30 µM in each case.
With `CC1OC2(CS1)CN1CCC2CC1` (stereo unspecified) [CEVIMELINE], the AC50 was greater than 10 µM in experiment [1]; greater than 30 µM in experiment [2]; greater than 10 µM in experiment [3]; greater than 10 µM in experiment [4]; greater than 30 µM in experiment [5].
In the case of `CNC1=Nc2ccc(Cl)cc2C(c2ccccc2)=[N+]([O-])C1` [CHLORDIAZEPOXIDE], the AC50 was greater than 30 µM in experiment [1], greater than 10 µM in experiment [3], greater than 10 µM in experiment [4] and greater than 30 µM in experiment [5].
`O=C(O)c1cn(C2CC2)c2cc(N3CCNCC3)c(F)cc2c1=O` [CIPROFLOXACIN] yielded an AC50 in experiment [1] greater than 30 µM.
Consider `Cc1ccccc1N1CCN(CCc2nnc3n2CCCC3)CC1` [DAPIPRAZOLE], for which the AC50 in experiment [7] was found to be 7.61 µM; in experiment [8] it was 3.77 µM.
`Nc1ncn([C@H]2C[C@H](O)[C@@H](CO)O2)c(=O)n1` [DECITABINE]: the AC50 in experiment [1] is greater than 30 µM; in experiment [2], greater than 30 µM; in experiment [3], 19.1 µM; in experiment [4], greater than 30 µM.
With `CC(C)(C)C(=O)OCC(=O)[C@H]1CC[C@H]2[C@@H]3CCC4=CC(=O)CC[C@]4(C)[C@H]3CC[C@]12C` [DESOXYCORTICOSTERONE PIVALATE], the AC50 was greater than 10 µM in experiment [2]; greater than 10 µM in experiment [3]; greater than 10 µM in experiment [4]; greater than 30 µM in experiment [5]; greater than 30 µM in experiment [6].
With `CC(CCc1ccc(O)cc1)NCCc1ccc(O)c(O)c1` (stereo unspecified) [DOBUTAMINE], the concentration at half-maximal activity (AC50) in experiment [1] was greater than 30 µM; in experiment [3] it was 5.58 µM; in experiment [4], greater than 30 µM; in experiment [6], greater than 30 µM.
In the case of `C=C1CC[C@H](O)C/C1=C/C=C1\CCC[C@]2(C)[C@@H]([C@H](C)/C=C/[C@H](C)C(C)C)CC[C@@H]12` [ERGOCALCIFEROL], the AC50 in experiment [7] and in experiment [8] was greater than 30 µM in each case.
Take `CCOC(=O)c1cncn1[C@H](C)c1ccccc1` [ETOMIDATE]: the AC50 in experiment [1] was greater than 10 µM; in experiment [2], greater than 10 µM; in experiment [3] it was greater than 10 µM; in experiment [4], greater than 10 µM; in experiment [5], greater than 30 µM.
`CCC1(c2ccccc2)CCC(=O)NC1=O` (stereo unspecified) [GLUTETHIMIDE]: the AC50 in experiment [2] is greater than 10 µM; in experiment [3], greater than 10 µM; in experiment [4], greater than 10 µM; in experiment [5], greater than 30 µM; in experiment [6] it was greater than 30 µM.
`CC(C)NCC(O)c1ccc(O)c(O)c1` (stereo unspecified) [ISOPROTERENOL]: the half-maximal activity concentration (AC50) in experiment [1] and in experiment [6] was greater than 30 µM each time.
For the molecule `CC(C(=O)O)c1ccc(CC2CCCC2=O)cc1` (stereo unspecified) [LOXOPROFEN], the AC50 in experiment [3], in experiment [4], in experiment [5] and in experiment [6] was greater than 30 µM in each case.
As to `CCOC(=O)C1=C(C)NC(C)=C(C(=O)OC)C1c1cccc([N+](=O)[O-])c1` (stereo unspecified) [NITRENDIPINE], the AC50 in experiment [3] is greater than 10 µM; in experiment [4], greater than 10 µM; in experiment [5], greater than 30 µM; in experiment [6], 22 µM.
For `[H]/N=C(/N)N/C(=N/[H])NCCc1ccccc1` [PHENFORMIN], the AC50 in experiment [1] was greater than 30 µM; in experiment [2], greater than 30 µM; in experiment [3], greater than 10 µM; in experiment [4] it was greater than 10 µM.
As to `CCCCC1C(=O)N(c2ccccc2)N(c2ccccc2)C1=O` [PHENYLBUTAZONE], the half-maximal activity concentration (AC50) in experiment [1], in experiment [3] and in experiment [4] was greater than 10 µM throughout.
Consider `CC(N)C(O)c1ccccc1` (stereo unspecified) [PHENYLPROPANOLAMINE], for which the AC50 in experiment [1] is greater than 30 µM; in experiment [2], greater than 10 µM; in experiment [3] it was greater than 10 µM; in experiment [4], greater than 10 µM; in experiment [5], greater than 30 µM.
Take `CCCN[C@H]1CCc2nc(N)sc2C1` [PRAMIPEXOLE]: the AC50 in experiment [2] is greater than 10 µM; in experiment [3], greater than 30 µM; in experiment [5], 13 µM; in experiment [6] it was greater than 30 µM.
As to `CNCc1ccc(-c2[nH]c3cc(F)cc4c3c2CCNC4=O)cc1` [RUCAPARIB], the results for the AC50 in experiment [1], in experiment [2] and in experiment [3] were greater than 30 µM, greater than 10 µM and 40.1 µM, respectively.
On to `Cc1noc(NS(=O)(=O)c2ccc(N)cc2)c1C` [SULFISOXAZOLE], for which the AC50 in experiment [3] is greater than 10 µM; in experiment [4] it was greater than 10 µM; in experiment [5] it was 22 µM; in experiment [6] it was greater than 30 µM.
In the case of `Clc1ccc(C(Cn2ccnc2)OCc2ccsc2Cl)c(Cl)c1` (stereo unspecified) [TIOCONAZOLE], the AC50 in experiment [1] is 17.9 µM; in experiment [2], greater than 30 µM; in experiment [3], 24.3 µM; in experiment [4], greater than 30 µM; in experiment [5] it was 3.2 µM.
Turning to `Cc1cc2cc3c(C)cc(=O)oc3c(C)c2o1` [TRIOXSALEN], the AC50 in experiment [3] and in experiment [4] was greater than 10 µM each time.
Regarding `CC(C)[C@H](N)C(=O)OCC(CO)OCn1cnc2c(=O)nc(N)[nH]c21` (stereo partly specified) [VALGANCICLOVIR], the AC50 in experiment [1], in experiment [2], in experiment [3] and in experiment [4] was greater than 30 µM throughout.
As to `Cc1cc(C(C)(C)C)cc(C)c1CC1=NCCN1` [XYLOMETAZOLINE], the half-maximal activity concentration (AC50) in experiment [1] is greater than 30 µM; in experiment [2], greater than 30 µM; in experiment [3] it was greater than 30 µM; in experiment [4] it was 0.0616 µM; in experiment [6], greater than 30 µM.
